We go through 18 compounds from patent US20050004111A1, “Selective MMP-13 inhibitors” (AVENTIS PHARMA DEUTSCHLAND GMBH, priority 2003, published 2005).

One assay concerns the target T1, prolyl 4-hydroxylase (Gallus gallus, UniProt P16924).
T1 construct: from tissue; host or cells: 14-day-old chick embryos (homogenate)
T1 sequence (P16924 1-516): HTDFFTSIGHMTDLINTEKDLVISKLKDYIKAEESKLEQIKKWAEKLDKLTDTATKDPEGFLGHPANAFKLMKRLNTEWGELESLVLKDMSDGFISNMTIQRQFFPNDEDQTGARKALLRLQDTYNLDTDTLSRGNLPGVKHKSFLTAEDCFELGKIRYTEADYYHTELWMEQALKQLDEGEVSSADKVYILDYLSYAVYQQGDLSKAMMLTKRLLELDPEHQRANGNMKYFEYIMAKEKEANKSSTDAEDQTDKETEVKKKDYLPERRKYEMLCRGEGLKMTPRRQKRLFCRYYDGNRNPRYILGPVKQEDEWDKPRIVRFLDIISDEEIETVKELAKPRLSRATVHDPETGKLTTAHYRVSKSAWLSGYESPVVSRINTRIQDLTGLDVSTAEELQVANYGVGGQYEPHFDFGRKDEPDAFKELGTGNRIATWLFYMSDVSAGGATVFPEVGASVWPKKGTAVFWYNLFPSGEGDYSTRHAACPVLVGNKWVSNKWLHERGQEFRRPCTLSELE
T1 sequence (P09102 23-515 partner): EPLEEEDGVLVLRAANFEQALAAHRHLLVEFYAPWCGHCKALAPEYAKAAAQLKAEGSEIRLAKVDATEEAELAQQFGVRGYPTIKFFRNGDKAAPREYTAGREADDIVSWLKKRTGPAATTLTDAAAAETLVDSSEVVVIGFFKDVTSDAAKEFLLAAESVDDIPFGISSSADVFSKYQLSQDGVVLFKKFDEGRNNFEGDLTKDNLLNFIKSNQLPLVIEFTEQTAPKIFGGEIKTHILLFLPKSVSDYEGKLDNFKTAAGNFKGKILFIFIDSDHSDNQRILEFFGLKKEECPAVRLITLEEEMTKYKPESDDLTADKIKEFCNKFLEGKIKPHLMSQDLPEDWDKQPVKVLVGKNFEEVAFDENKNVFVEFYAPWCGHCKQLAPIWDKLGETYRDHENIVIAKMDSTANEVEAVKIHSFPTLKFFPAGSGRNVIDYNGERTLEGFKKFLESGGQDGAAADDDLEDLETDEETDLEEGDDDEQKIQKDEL
Nature of the assay: Prolyl hydroxylase inhibition (method of Majamaa, version of Kaule and Guenzler). The settings on record: enzyme from 14-day-old chick embryos; concentrations of from 0.1 μM to 1 mM. Format: biochemical. The procedure:
Determining prolyl hydroxylase inhibition by the method of Majamaa Eur. J. Biochem. 138 (1984) 239-245 using the version of Kaule and guenzler Analytical Biochemistry 184 (1990) 291-297.
0.03 μg of prolyl 4-hydroxylase, which was prepared, by the method of Kedersa, Collagen Relat. Res. 1 (1981) 345-353, from homogenized 14-day-old chick embryos by ammonium sulfate precipitation and affinity chromatography on poly-L-proline-coupled Sepharose 4B and subsequent DEAE cellulose chromatography, was incubated, at 37° C. for one hour, in 0.05 ml of an 0.04 M tris-HCl solution (pH=7.5) containing 0.05 mM FeSO4, 0.1 mM 2-oxo-[5-C-14]glutarate (100,000 dpm), 20 μg (0.4 mg/ml) of (Pro-Pro-Gly)10 (Protein Research Foundation, Minoh, Osaka, Japan), 1 mM ascorbic acid, 0.4 mg of catalase/ml, 0.5 mM dithiothreitol and 2 mg of bovine serum albumin/ml, as well as the concentration of the inhibitor to be measured (the comparison experiment was carried out without any inhibitor). After that, 25 μl of a 20 mM succinate and 2-oxaglutarate solution, and also 25 μl of a 0.16 M 2,4-DNPH solution containing 30% HClO4, were added. After the mixture had been incubated at room temperature for a further 30 minutes, it was centrifuged at 3000 g for 5 minutes. The radioactivity of 100 μl of the supernatant was determined by liquid scintillation. Production of the [1-C-14] succinate was given in dpm. Unless otherwise indicated, all the chemicals and reagents were obtained from Sigma, Sigma D-82024 Taufkirchen.
The compounds tested in Table 3 were used at concentrations of from 0.1 μM to 1 mM. Where it was possible, the IC50 value was determined by graphic extrapolarization of the individual results. This value denotes the concentration of active inhibitors that led to 50% inhibition of the enzyme.
In the case of `Cc1cc(CNC(=O)c2cc(C(=O)NCc3cccs3)ncn2)ccc1F` [Example 7], the “Prolyl hydroxylase IC50” value is given as “No inhibition”.

As for `O=C(NCc1ccncc1)c1cc(C(=O)NCc2ccc(F)c(Cl)c2)ncn1` [Example 14], the “Prolyl hydroxylase IC50” value is recorded as “No inhibition”.

As to `COc1cccc(CNC(=O)c2cc(C(=O)NCc3ccncc3)ncn2)c1` [Example 22], the “Prolyl hydroxylase IC50” value is listed as “No inhibition”.

For `COc1cccc(CNC(=O)c2cc(C(=O)NCc3cccc(OCCN(C)C)c3)ncn2)c1` [Example 69], the “Prolyl hydroxylase IC50” value was “No inhibition”.

As to `COc1cccc(CNC(=O)c2cc(C(=O)NCc3ccc(OCCN(C)C)cc3)ncn2)c1` [Example 70], the “Prolyl hydroxylase IC50” value is given as “No inhibition”.

As to `COc1cccc(CNC(=O)c2cc(C(=O)NCc3ccc(OCCCN(C)C)cc3)ncn2)c1` [Example 71], the “Prolyl hydroxylase IC50” value is listed as “No inhibition”.

Turning to `O=C(NCc1ccc(OCCN2CCOCC2)cc1)c1cc(C(=O)NCc2ccc(F)c(Cl)c2)ncn1` [Example 72], the “Prolyl hydroxylase IC50” value is recorded as “No inhibition”.

Take `O=C(NCc1ccc(F)c(Cl)c1)c1cc(C(=O)NCc2cccs2)ncn1` [Example 83]: the “Prolyl hydroxylase IC50” value was “No inhibition”.

`Cc1ccc(CNC(=O)c2cc(C(=O)NCc3ccc(F)c(C)c3)ncn2)o1` [Example 84]: the “Prolyl hydroxylase IC50” value is reported as “No inhibition”.

For orientation: IC50 means the midpoint of a concentration-inhibition curve. For the compound `O=C(O)c1cc(C(=O)O)ncn1` [Pyrimidine-4,6-dicarboxylic acid, reference compound], the IC50 is 1.2 µM.

The target of another assay is T2, catalytic domain of human collagenase 3 (MMP-13) (Homo sapiens, UniProt P45452).
T2 construct: Determining the enzyme activity of the catalytic domain of human collagenase 3 (MMP-13); purchased INVITEK, Berlin 30 100 803
Nature of the assay: Enzyme activity of the catalytic domain of human collagenase 3 (MMP-13), fluorogenic substrate. The format is biochemical. The settings on record: determined graphically from % inhibition, read-out: IC50 MMP13. As to the method: Determining the enzyme activity of the catalytic domain of human collagenase 3 (MMP-13).
Activating the proenzyme:
2 parts by volume of proenzyme are incubated with 1 part by volume of APMA solution at 37° C. for 1.5 hours. The APMA solution is prepared from a 10 mmol/l solution of p-aminophenylmercuric acetate in […] by diluting with 3 parts by volume of tris/HCl buffer, pH 7.5 (see below). The pH is adjusted to between 7.0 and 7.5 by adding 1 mmol/I HCl. After the enzyme has been activated, it is diluted to a concentration of 1.67 μg/ml using the tris/HCl buffer.
In order to measure the enzyme activity, 10 μl of enzyme solution are incubated for 15 minutes with 10 μl of a 3% (v/v) buffered solution of dimethyl sulfoxide (reaction 1). In order to measure the enzyme inhibitor activity, 10 μl of enzyme solution are incubated with 10 μl of a 3% (v/v) buffered solution of dimethyl sulfoxide containing the enzyme inhibitor (reaction 2).
In the case of both reaction 1 and reaction 2, the enzyme reaction is monitored by fluorescence spectroscopy (328 nm (extinction)/393 nm (emission)) after adding 10 μl of a 3% (v/v) aqueous solution of dimethyl sulfoxide containing 0.75 mmol of the substrate/l.
The enzyme activity is depicted as increase in extinction/minute.
The effect of the inhibitor is calculated as a percentage inhibition using the following formula: % inhibition=100−[(increase in extinction/minute in reaction 2)/(increase in extinction/minute in reaction 1)×100].
The IC50, i.e., the inhibitor concentration that is required for inhibiting the enzyme activity by 50%, is determined graphically by plotting the percentage inhibitions at different inhibitor concentrations.
The buffer solution contains 0.05% Brij (Sigma, Deisenhofen, Germany) and 0.1 mol of tris/HCl/l, 0.1 mol of NaCl/l and 0.01 mol of CaCl2/l (pH=7.5). The enzyme solution contains 1.67 μg of the enzyme domain/ml. The substrate solution contains 0.75 mmol/l of the fluorogenic substrate (7-methoxycoumarin4-yl)acetyl-Pro-Leu-Gly-Leu-3-(2′,4′-dinitrophenyl)-L-2,3-diaminopropionyl-Ala-Arg-NH2 (Bachem, Heidelberg, Germany).
`Cc1cc(CNC(=O)c2cc(C(=O)NCc3ccc(OCC(=O)OC(C)(C)C)cc3)ncn2)ccc1F` [Example 1, tert-Butyl [4-({[6-(4-fluoro-3-methylbenzylcarbamoyl)pyrimidine-4-carbonyl]amino}methyl)phenoxy]acetate]: the concentration for half-maximal inhibition (IC50) is 0.012 µM.

Consider `Cc1cc(CNC(=O)c2cc(C(=O)NCc3ccc(OCC(=O)O)cc3)ncn2)ccc1F` [Example 2, [4-({[6-(4-Fluoro-3-methylbenzylcarbamoyl)pyrimidine-4-carbonyl]-amino}methyl)phenoxy]acetic acid], for which the IC50 was 0.007 µM.

`COc1cccc(CNC(=O)c2cc(C(=O)NCc3ccc(C)s3)ncn2)c1` [Example 4]: the IC50 came out at 0.024 µM.

As for `COc1cc(CNC(=O)c2cc(C(=O)NCc3ccc(F)c(Br)c3)ncn2)ccn1` [Example 11], the 50% inhibitory concentration (IC50) turned out to be 0.03 µM.

Turning to `COc1cc(CNC(=O)c2cc(C(=O)NCc3ccc(F)c(Cl)c3)ncn2)ccn1` [Example 20], the IC50 turned out to be 0.05 µM.

`O=C(NCCc1cccs1)c1cc(C(=O)NCc2ccc(F)c(Cl)c2)ncn1` [Example 28]: the IC50 turned out to be 0.1 µM.

In the case of `Cc1cc(CNC(=O)c2cc(C(=O)NCc3sccc3C)ncn2)ccc1F` [Example 35], the concentration for half-maximal inhibition (IC50) came out at 0.2 µM.

For `COc1cccc(CNC(=O)c2cc(C(=O)NCc3nccs3)ncn2)c1` [Example 44], the 50% inhibitory concentration (IC50) worked out at 0.5 µM.
